Laboratory results reported in patent US11319324B2, “Pyrazolo-pyrrolo-pyrimidine-dione derivatives as P2X3 inhibitors” (Bayer Aktiengesellschaft, priority 2017, dated 2022).

Key:
Assay type in all cases: cell-based
human P2X3 receptor [1] = biological target: T1, human P2X3 receptor (Homo sapiens, UniProt P56373); assay: Intracellular calcium measurement to assess antagonist activity at human P2X3 receptors (hP2X3 CHO), photina luminescence; set-up: expressed in transfected cells; host or cells: Chinese hamster ovary (CHO) cells; conditions: column 2), CHO cells, agonist α,β-methylene-ATP at EC50
T1 sequence (P56373 1-397): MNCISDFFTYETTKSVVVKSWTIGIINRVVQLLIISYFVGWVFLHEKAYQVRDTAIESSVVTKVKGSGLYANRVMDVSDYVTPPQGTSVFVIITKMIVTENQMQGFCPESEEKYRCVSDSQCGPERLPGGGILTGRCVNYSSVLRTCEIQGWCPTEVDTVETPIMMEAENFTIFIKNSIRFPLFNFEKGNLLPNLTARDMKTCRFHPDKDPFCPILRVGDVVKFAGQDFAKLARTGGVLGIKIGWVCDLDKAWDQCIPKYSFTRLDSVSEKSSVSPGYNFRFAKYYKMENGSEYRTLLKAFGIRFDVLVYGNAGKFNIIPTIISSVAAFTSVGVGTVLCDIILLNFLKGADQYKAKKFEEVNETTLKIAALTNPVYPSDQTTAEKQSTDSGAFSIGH
How it was run: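 CHO cells stably expressing human P2X3 and mitochondrial photina, plated the day before at 30 °C, then loaded 3 h at 37 °C in 2 mM Ca-tyrode buffer with 5 μg/ml coelenterazine. Agonist-evoked calcium luminescence read immediately; inhibition seen as signal decrease.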

human P2X2/3 receptors = biological target: T2, human P2X2/3 receptors (Homo sapiens, UniProt P56373+Q9UBL9); assay: Intracellular calcium measurement, antagonist activity at human P2X2/3 receptors (hP2X23 1321N1), Fluo8; conditions: for IC50: column 4); 1321N1 cells, human P2X2/3, Fluo8, agonist ATP at EC50; read-out: 4) hP2X2/3 IC50 [nM] (1321N1); for hP2X23/hP2X3* Selectivity (1321N1): ratio of column 4) hP2X2/3 to column 3) hP2X3, 1321N1
T2 construct: expressed in transfected cells; host or cells: human astrocytoma 1321N1 (1312N1 [sic])
T2 sequence (P56373 1-397): T1 sequence (P56373 1-397)
T2 sequence (Q9UBL9 1-471): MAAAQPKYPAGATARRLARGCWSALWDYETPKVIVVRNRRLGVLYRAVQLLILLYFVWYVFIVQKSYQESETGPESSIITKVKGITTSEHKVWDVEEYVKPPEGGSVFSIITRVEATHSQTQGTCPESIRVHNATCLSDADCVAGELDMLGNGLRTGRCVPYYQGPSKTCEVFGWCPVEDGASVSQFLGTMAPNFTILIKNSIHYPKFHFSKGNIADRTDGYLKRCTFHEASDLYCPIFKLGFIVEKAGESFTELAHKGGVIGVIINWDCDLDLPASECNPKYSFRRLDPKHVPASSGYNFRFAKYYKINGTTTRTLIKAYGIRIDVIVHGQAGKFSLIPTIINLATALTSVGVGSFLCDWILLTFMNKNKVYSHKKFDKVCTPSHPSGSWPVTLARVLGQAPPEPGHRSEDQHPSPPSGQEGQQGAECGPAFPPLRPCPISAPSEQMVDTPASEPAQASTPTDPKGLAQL
Protocol: (§1) 3) And 4) Intracellular Calcium Measurement to Compare Antagonist Activity at Human P2X3 Receptors (hP2X3 1321N1) and at Human P2X2/3 Receptors (hP2X23 1321N1)
(§2) The comparison of antagonistic activity at the P2X3 versus the P2X2/3 receptor of the compounds of the invention were performed by use of recombinant cell lines. These cell lines derived originally from the human astrocytoma cell line […] (Macintyre E H, Pontén J, Vatter A E. Acta Pathol Microbiol Scand A. 1972; 80(2):267-83). The cell lines are stably transfected with the human P2X3 receptor forming homotrimeric P2X3 receptors or are co-transfected with P2X2 and P2X3 forming heterotrimeric P2X2/3 receptors. Stimulation of the receptors with the agonist ATP leads to a conformational change of the receptors and influx of extracellular calcium ions through the open ion channel. The cytoplasmatic calcium transient is detected via the calcium sensitive dye Fluo8. The strength of Fluo8 fluorescence signal corresponds to the level of receptor activation. An inhibitor would decrease the signal depending on its potency and concentration. Fluorescence was measured by use of a suitable fluorescence reader.
(§3) On the day before the assay, the cells were plated in culture medium (DMEM high glucose, 10% FCS, 1% MEM non-essential amino acids, 4 mM Glutamax) in 384-well poly-D-lysine coated microtiter plates and kept in a cell incubator (96% humidity, 5% v/v CO2, 37° C.). On the day of the assay medium was exchanged by Fluo8 containing buffer and incubated for 60 minutes. Test compounds were added at various concentrations and plates were incubated for 10 minutes. In the fluorescence reader a 3 seconds baseline measurement was performed and the agonist ATP was applied at EC50 concentration of the respective receptor during constant fluorescence measurement for 120 seconds.

human P2X3 receptor [2] = biological target: T1, human P2X3 receptor; assay: Intracellular calcium measurement, antagonist activity at human P2X3 receptors (hP2X3 1321N1), Fluo8; set-up: expressed in transfected cells; host or cells: human astrocytoma 1321N1 (1312N1 [sic]); conditions: column 3); 1321N1 cells, human P2X3, Fluo8, agonist ATP at EC50
Protocol: as §1, §2, §3

SMILES | IC50 (human P2X3 receptor [1]) | IC50 (human P2X2/3 receptors) | hP2X23/hP2X3* Selectivity (1321N1) (human P2X2/3 receptors) | IC50 (human P2X3 receptor [2])
O=C(Cn1c2c(c(=O)n3nc(C4CCOCC4)cc13)CN(C1CCCC1)C2=O)Nc1ccc(F)cn1 [Example 92] | 64 nM | 5050 nM | 192 | 26 nM
CC(C)N1Cc2c(n(CC(=O)Nc3ccc(F)cn3)c3cc(C(=O)N4CCN(C)CC4)nn3c2=O)C1=O [Example 188] | 91 nM | > 32000 nM | >267 | 120 nM
CCc1cc2n(CC(=O)Nc3ccc(F)cn3)c3c(c(=O)n2n1)CN(C[C@H]1CN(C)CCO1)C3=O [Example 255, 2-(2-ethyl-6-{[(2R)-4-methylmorpholin-2-yl]methyl}-5,8-dioxo-5,6,7,8-tetrahydro-4H-pyrazolo[1,5-a]pyrrolo[3,4-d]pyrimidin-4-yl)-N-(5-fluoropyridin-2-yl)acetamide] | 400 nM | 11300 nM | 26 | 440 nM
COC[C@H](C)N1Cc2c(n(CC(=O)Nc3ccc(F)cn3)c3cc(C(=O)N4CCOCC4)nn3c2=O)C1=O [Example 191] | 29 nM | > 32000 nM | >1199 | 27 nM
CC(C)N1Cc2c(n(CC(=O)Nc3ccc(F)cn3)c3cc(C4CCN(S(=O)(=O)CC(F)(F)F)C4)nn3c2=O)C1=O (stereo not drawn) [Example 271] | 81 nM | > 20500 nM | >569 | 36 nM

Next, values leading:

IC50 (human P2X3 receptor [1]) | IC50 (human P2X2/3 receptors) | hP2X23/hP2X3* Selectivity (1321N1) (human P2X2/3 receptors) | IC50 (human P2X3 receptor [2]) | SMILES
245 nM | > 32000 nM | >55 | 587 nM | CC(C)N1Cc2c(n(CC(=O)Nc3ccc(F)cn3)c3cc(NC(=O)CO)nn3c2=O)C1=O [Example 289, N-[4-{2-[(5-fluoropyridin-2-yl)amino]-2-oxoethyl}-5,8-dioxo-6-(propan-2-yl)-5,6,7,8-tetrahydro-4H-pyrazolo[1,5-a]pyrrolo[3,4-d]pyrimidin-2-yl]-2-hydroxyacetamide]
58 nM | 8900 nM | 85 | 104 nM | CCNc1cc2n(CC(=O)Nc3ccc(F)cn3)c3c(c(=O)n2n1)CN(C(C)C)C3=O [Example 173]
6 nM | 580 nM | 106 | 5 nM | COC[C@H](C)N1Cc2c(n(CC(=O)Nc3ccc(F)cn3)c3cc(-c4ccc(C)nc4)nn3c2=O)C1=O [Example 151, N-(5-fluoropyridin-2-yl)-2-{6-[(2S)-1-methoxypropan-2-yl]-2-(6-methylpyridin-3-yl)-5,8-dioxo-5,6,7,8-tetrahydro-4H-pyrazolo[1,5-a]pyrrolo[3,4-d]pyrimidin-4-yl}acetamide]
11 nM | 7000 nM | 1321 | 5 nM | CC(C)N1Cc2c(n(CC(=O)Nc3ccc(F)cn3)c3cc(C(=O)N(C)CC4CC4)nn3c2=O)C1=O [Example 199]
12 nM | 2250 nM | 139 | 16 nM | CC(C)N1Cc2c(n(CC(=O)Nc3ccc(F)cn3)c3cc(-c4ccccc4)nn3c2=O)C1=O [Example 150, 2-[5,8-dioxo-2-phenyl-6-(propan-2-yl)-5,6,7,8-tetrahydro-4H-pyrazolo[1,5-a]pyrrolo[3,4-d]pyrimidin-4-yl]-N-(5-fluoropyridin-2-yl)acetamide]
162 nM | 4300 nM | 36 | 118 nM | CC(C)N1Cc2c(n(CC(=O)Nc3ccc(F)cn3)c3cc(C4CCN(C5CCC5)C4)nn3c2=O)C1=O (stereo not drawn) [Example 250]
95 nM | > 23500 nM | >1175 | 20 nM | CC(C)N1Cc2c(n(CC(=O)Nc3ccc(F)cn3)c3cc(C4CCOC4)nn3c2=O)C1=O (racemic) [Example 228, 2-{5,8-dioxo-2-[(±)-oxolan-3-yl]-6-(propan-2-yl)-5,6,7,8-tetrahydro-4H-pyrazolo[1,5-a]pyrrolo[3,4-d]pyrimidin-4-yl}-N-(5-fluoropyridin-2-yl)acetamide]
